Source: PMC11261605, “Photocontrolled Reversible Amyloid Fibril Formation of Parathyroid Hormone-Derived Peptides” (Bioconjugate Chemistry, 2024)
Converted amounts (≈) assume the structure as drawn. *1 amine or outer side, *2 acyl side, *3 side chain or, on linkers, in order; H or OH if unused. Where a SMILES comes first, the peptide text is derived from it. Where no end group is shown, it is not given here. [ ]: non-standard residue; d: D form. X1 = O=C(c1cccc(N=Nc2ccc(CN[*:1])cc2)c1)[*:2]

Tests used:
[1] = Maximal solubility in buffered solution; type: physicochemical; settings: phosphate buffer, aqueous buffer; maximal solubility from solid (0.5 mg portions into 1 mL until precipitate); 50 mM aqueous Na2HPO4 pH 7.4; centrifuged 10 000 rpm 1 h 4 °C; supernatant by UV/vis absorbance
Description: UV/vis-absorbance spectroscopy was measured on a JASCO V-660 absorbance spectrometer in a 1 cm quartz glass cuvette. For PTH25–37, the absorbance was measured at 205 nm with a molar extinction coefficient of 49.310 cm^–1 M^–1; trans-azobenzene containing peptides were measured at 327 nm with a molar extinction coefficient of 13.000 cm^–1 M^–1. CD spectroscopy was measured with a JASCO J-1500 CD Spectrometer in either a 1 mm. As buffered solution, a 50 mM aqueous Na2HPO4 buffer solution was used with a pH value adjusted to 7.4. Transmission was measured with a Litesizer DLS 500 from Anton Paar using a 3 mm × 3 mm quartz glass cuvette. The irradiation wavelength was 658 nm. The equilibration time was 1 min, and the measurement time was 10 s. The temperature was maintained at 25 °C.
To determine the maximal solubility of a peptide, small amounts (0.5 mg) of the respective peptide were added to 1 mL of buffered solution and shacked for 10 s until an insoluble precipitate was visible. The suspensions were centrifuged at 10 000 rpm for 1 h at 4 °C, and the supernatant was transferred to another tube. The remaining monomer concentration was determined using UV/vis-absorbance spectroscopy. To determine the critical concentration ccr, two samples were prepared for each peptide according to the procedure for the ThT monitored fibrillization assay, one with ThT as a reference sample and the other one without ThT. Twenty hours after the reference sample reached the stationary phase, the fibril containing solutions from the sample without ThT were transferred to a tube and centrifuged at 10 000 rpm for 1 h at room temperature. The supernatant was transferred to another tube, and the concentration of the remaining monomers was determined using UV/vis-absorbance spectroscopy at 278 nm with a molar extinction coefficient of 3750 cm^–1 M^–1 for the azobenzene containing peptides and at 205 nm with a molar extinction coefficient of 49 310 cm^–1 M^–1 for PTH25–37.

[2] = test system: 3T3 cells; test: Resazurin reduction cell viability assay on 3T3 fibroblasts; type: cell-based, murine; settings: trans-isomers, serial dilutions, 24 h or 96 h incubation, n = 8 per treatment, 3 independent experiments
Description: (§1) Cell viability was determined for trans-P4, trans-P8, and trans-P12 on NHDF as well as 3T3 fibroblasts with a resazurin reduction assay. Briefly, cells were seeded at desired cell densities in corresponding culture media supplemented with 10% FCS and penicillin/streptomycin in 96-well plates on day 0 and incubated overnight under standard cell culture conditions. On day 1, serial dilutions of the peptides in cell culture media were prepared. Then, medium (background and negative control–100% viability), TritonX in medium f.c. 0.025% (postive control–0% viability), and the peptide dilutions were added with one treatment per column (n = 8). Incubation for 24 h or 96 h under standard cell culture conditions followed. On day of measurement, resazurin stock solution was added to a final concentration of 44 μM into each well. After 2 h incubation, the resorufin fluorescence was measured with a Cytation 5 plate reader system. Means and standard deviation of each column were calculated. Experiments were repeated independently 3 times, and average values were evaluated (see Figure S12).
(§2) Figure S12: Cell viability assay of trans-P4, trans-P8, and trans-P12 on NHDF (human, adult, fibroblasts) and 3T3 (murine,
(§3) embryonal, fibroblasts) cells after 24 h (blue) and 96 h (orange). 100% cell viability corresponds to the value of the negative,
(§4) (1 picture or pasted object on this page, not shown here)

[3] = test system: NHDF cells; test: Resazurin reduction cell viability assay on NHDF fibroblasts; type: cell-based, human; settings: trans-isomers, serial dilutions, 24 h or 96 h incubation, n = 8 per treatment, 3 independent experiments
Description: as §1, §2, §3, §4

Row | Compound | solubility thermodynamic at 10 s [1] | toxicity toward 3T3 cells [2] | toxicity toward NHDF cells [3]
1 | CC(C)C[C@H](NC(=O)[C@H](C)NC(=O)c1cccc(N=Nc2ccc(CNC(=O)[C@@H](NC(=O)[C@H](Cc3ccccc3)NC(=O)[C@H](CC(N)=O)NC(=O)[C@H](Cc3c[nH]cn3)NC(=O)[C@@H](NC(=O)[C@H](CC(=O)O)NC(=O)[C@H](CCC(N)=O)NC(=O)[C@H](CC(C)C)NC(=O)[C@H](CCCCN)NC(=O)[C@H](CCCCN)NC(=O)[C@@H](N)CCCNC(=N)N)C(C)C)C(C)C)cc2)c1)C(=O)O [P11] (H-RKKLQDVHNFV[X1]AL-OH) | 20 µM (≈ 36.1 µg/mL) | – | –
2 | CC(C)C[C@H](NC(=O)[C@H](C)NC(=O)[C@@H](NC(=O)[C@H](Cc1ccccc1)NC(=O)[C@H](CC(N)=O)NC(=O)[C@H](Cc1c[nH]cn1)NC(=O)[C@@H](NC(=O)[C@H](CC(=O)O)NC(=O)[C@H](CCC(N)=O)NC(=O)[C@H](CC(C)C)NC(=O)[C@H](CCCCN)NC(=O)c1cccc(N=Nc2ccc(CNC(=O)[C@@H](N)CCCNC(=N)N)cc2)c1)C(C)C)C(C)C)C(=O)O [P9] (H-R[X1]KLQDVHNFVAL-OH) | 130 µM (≈ 218 µg/mL) | – | –
3 | CC(C)C[C@H](NC(=O)[C@H](C)NC(=O)[C@@H](NC(=O)[C@H](Cc1ccccc1)NC(=O)[C@H](CC(N)=O)NC(=O)[C@H](Cc1c[nH]cn1)NC(=O)c1cccc(N=Nc2ccc(CNC(=O)[C@@H](NC(=O)[C@H](CC(=O)O)NC(=O)[C@H](CCC(N)=O)NC(=O)[C@H](CC(C)C)NC(=O)[C@H](CCCCN)NC(=O)[C@H](CCCCN)NC(=O)[C@@H](N)CCCNC(=N)N)C(C)C)cc2)c1)C(C)C)C(=O)O [P2] (H-RKKLQDV[X1]HNFVAL-OH) | 60 µM (≈ 108 µg/mL) | – | –
4 | CC(C)C[C@H](NC(=O)[C@H](C)NC(=O)[C@@H](NC(=O)[C@H](Cc1ccccc1)NC(=O)[C@H](CC(N)=O)NC(=O)[C@H](Cc1c[nH]cn1)NC(=O)[C@@H](NC(=O)c1cccc(N=Nc2ccc(CNC(=O)[C@H](CCC(N)=O)NC(=O)[C@H](CC(C)C)NC(=O)[C@H](CCCCN)NC(=O)[C@H](CCCCN)NC(=O)[C@@H](N)CCCNC(=N)N)cc2)c1)C(C)C)C(C)C)C(=O)O [P3] (H-RKKLQ[X1]VHNFVAL-OH) | 35 µM (≈ 59.2 µg/mL) | – | –
5 | CC(C)C[C@H](NC(=O)[C@H](C)NC(=O)[C@@H](NC(=O)[C@H](Cc1ccccc1)NC(=O)[C@H](CC(N)=O)NC(=O)[C@H](Cc1c[nH]cn1)NC(=O)[C@@H](NC(=O)[C@H](CC(=O)O)NC(=O)c1cccc(N=Nc2ccc(CNC(=O)[C@H](CCC(N)=O)NC(=O)[C@H](CC(C)C)NC(=O)[C@H](CCCCN)NC(=O)[C@H](CCCCN)NC(=O)[C@@H](N)CCCNC(=N)N)cc2)c1)C(C)C)C(C)C)C(=O)O [P6] (H-RKKLQ[X1]DVHNFVAL-OH) | 20 µM (≈ 36.1 µg/mL) | – | –
6 | CC(C)C[C@H](NC(=O)[C@H](C)NC(=O)c1cccc(N=Nc2ccc(CNC(=O)[C@H](Cc3ccccc3)NC(=O)[C@H](CC(N)=O)NC(=O)[C@H](Cc3c[nH]cn3)NC(=O)[C@@H](NC(=O)[C@H](CC(=O)O)NC(=O)[C@H](CCC(N)=O)NC(=O)[C@H](CC(C)C)NC(=O)[C@H](CCCCN)NC(=O)[C@H](CCCCN)NC(=O)[C@@H](N)CCCNC(=N)N)C(C)C)cc2)c1)C(=O)O [P12] (H-RKKLQDVHNF[X1]AL-OH) | 135 µM (≈ 230 µg/mL) | did not observe any toxicity | did not observe any toxicity
7 | CC(C)C[C@H](NC(=O)[C@H](C)NC(=O)[C@@H](NC(=O)[C@H](Cc1ccccc1)NC(=O)[C@H](CC(N)=O)NC(=O)[C@H](Cc1c[nH]cn1)NC(=O)[C@@H](NC(=O)c1cccc(N=Nc2ccc(CNC(=O)[C@H](CC(=O)O)NC(=O)[C@H](CCC(N)=O)NC(=O)[C@H](CC(C)C)NC(=O)[C@H](CCCCN)NC(=O)[C@H](CCCCN)NC(=O)[C@@H](N)CCCNC(=N)N)cc2)c1)C(C)C)C(C)C)C(=O)O [P1] (H-RKKLQD[X1]VHNFVAL-OH) | 90 µM (≈ 162 µg/mL) | – | –
8 | CC(C)C[C@H](NC(=O)[C@H](C)NC(=O)[C@@H](NC(=O)[C@H](Cc1ccccc1)NC(=O)[C@H](CC(N)=O)NC(=O)[C@H](Cc1c[nH]cn1)NC(=O)c1cccc(N=Nc2ccc(CNC(=O)[C@H](CC(=O)O)NC(=O)[C@H](CCC(N)=O)NC(=O)[C@H](CC(C)C)NC(=O)[C@H](CCCCN)NC(=O)[C@H](CCCCN)NC(=O)[C@@H](N)CCCNC(=N)N)cc2)c1)C(C)C)C(=O)O [P4] (H-RKKLQD[X1]HNFVAL-OH) | 370 µM (≈ 631 µg/mL) | did not observe any toxicity | did not observe any toxicity
9 | CC(C)C[C@H](NC(=O)[C@H](C)NC(=O)[C@@H](NC(=O)[C@H](Cc1ccccc1)NC(=O)c1cccc(N=Nc2ccc(CNC(=O)[C@H](CC(N)=O)NC(=O)[C@H](Cc3c[nH]cn3)NC(=O)[C@@H](NC(=O)[C@H](CC(=O)O)NC(=O)[C@H](CCC(N)=O)NC(=O)[C@H](CC(C)C)NC(=O)[C@H](CCCCN)NC(=O)[C@H](CCCCN)NC(=O)[C@@H](N)CCCNC(=N)N)C(C)C)cc2)c1)C(C)C)C(=O)O [P10] (H-RKKLQDVHN[X1]FVAL-OH) | 7 µM (≈ 12.6 µg/mL) | – | –
10 | CC(C)C[C@H](NC(=O)[C@H](C)NC(=O)[C@@H](NC(=O)[C@H](Cc1ccccc1)NC(=O)[C@H](CC(N)=O)NC(=O)[C@H](Cc1c[nH]cn1)NC(=O)c1cccc(N=Nc2ccc(CNC(=O)[C@H](CCC(N)=O)NC(=O)[C@H](CC(C)C)NC(=O)[C@H](CCCCN)NC(=O)[C@H](CCCCN)NC(=O)[C@@H](N)CCCNC(=N)N)cc2)c1)C(C)C)C(=O)O [P5] (H-RKKLQ[X1]HNFVAL-OH) | 25 µM (≈ 39.8 µg/mL) | – | –
11 | CC(C)C[C@H](NC(=O)[C@H](C)NC(=O)[C@@H](NC(=O)[C@H](Cc1ccccc1)NC(=O)[C@H](CC(N)=O)NC(=O)[C@H](Cc1c[nH]cn1)NC(=O)[C@@H](NC(=O)[C@H](CC(=O)O)NC(=O)[C@H](CCC(N)=O)NC(=O)[C@H](CC(C)C)NC(=O)[C@H](CCCCN)NC(=O)c1cccc(N=Nc2ccc(CNC(=O)[C@H](CCCCN)NC(=O)[C@@H](N)CCCNC(=N)N)cc2)c1)C(C)C)C(C)C)C(=O)O [P8] (H-RK[X1]KLQDVHNFVAL-OH) | 200 µM (≈ 361 µg/mL) | did not observe any toxicity | did not observe any toxicity
12 | CC(C)C[C@H](NC(=O)[C@H](C)NC(=O)[C@@H](NC(=O)[C@H](Cc1ccccc1)NC(=O)[C@H](CC(N)=O)NC(=O)[C@H](Cc1c[nH]cn1)NC(=O)[C@@H](NC(=O)[C@H](CC(=O)O)NC(=O)[C@H](CCC(N)=O)NC(=O)c1cccc(N=Nc2ccc(CNC(=O)[C@H](CC(C)C)NC(=O)[C@H](CCCCN)NC(=O)[C@H](CCCCN)NC(=O)[C@@H](N)CCCNC(=N)N)cc2)c1)C(C)C)C(C)C)C(=O)O [P7] (H-RKKL[X1]QDVHNFVAL-OH) | 140 µM (≈ 253 µg/mL) | – | –
13 | RKKLQDVHNFVAL [PTH25–37, reference compound] | > 500 µM | – | –
